These compounds were tested on Myotonic Dystrophy 1 affected patient fibroblasts (Coriell GM04602; 1600 CTG repeats) (assay: DM1 foci reduction assay (CAG10-Cy3 FISH, average foci per nucleus)). Details: Homo sapiens, Fibroblast, 48 h, read-out: Foci Reduction in Fibroblast EC50, 48 h (nM).
Format: cell-based
Experimental: DM1 foci reduction assay methods: Myotonic Dystrophy 1 affected patient fibroblasts (Coriell GM04602; 1600 CTG repeats) and wild type fibroblasts (Coriell GM07492; control line) were cultured separately in Gibco DMEM (1×)+4.5 g/L D-Glucose+L-Glutamine+110 mg/L Sodium Pyruvate, supplemented with 10% FBS and 1× Pen/Strep. Cells were maintained in incubator at 37° C. and 5% CO2 with media refresh every 48-72 hours.
At 90-95% confluency, both cell lines were harvested using Trypl-E then pelleted at 500×g for 5 minutes and were resuspended in media. DM1 fibroblasts were seeded in Agilent 96 well black plates at a density of 5,000 cells/well in 200 μL media; 8 wells were reserved for control fibroblasts. Plates were returned to incubator for 24 hours at 37° C. and 5% CO2.
Compounds were diluted from 10 mM stock to 1 mM in DMSO, then diluted once more to 6 μM (2× concentration) in media. Media was removed from all plates and cells were replenished with 100 μL media. Cells were treated in 8-point dose response, 1:3 fold dilution, 3 μM top dose via addition of 100 μL of 6 μM (2× concentration) compound to the 100 μL media with cells. Plates were returned to incubator for 48-hour time-course experiment at 37° C. and 5% CO2.
Following treatment, compounds were removed, and plates were washed with PBS, then cells were fixed in 75 μL 4% PFA solution for 20 minutes at room temperature. Plates were washed twice with PBS and twice with cold 70% ethanol before permeabilization with 250 μL cold 70% ethanol for 24-72 hours at −20° C.
After permeabilization, plates were washed once with a 30% formamide and 2×SSC buffer and rehydrated in that buffer for 15 minutes at room temperature. Cells were incubated overnight at 37° C. in 75 μL of a hybridization solution containing 30% formamide, 2×SSC, 25 mg/mL dextran sulfate, 2.5 mg/mL BSA, 0.2 μg/mL Herring sperm DNA, 2 mM vanadyl-ribonucleoside complex, and 5 nM CAG10-Cy3 probe.
Plates were washed once with 30% formamide in 2×SSC buffer, then twice with the buffer for 30 minutes at 37° C., 300 RPM in an incubating plate shaker. Cells were stained with 75 μL of 2.5 μg/mL DAPI in PBS for 5 minutes at room temperature. Plates were then washed twice with PBS and stored in 250 μL PBS. Plates were sealed with adhesive foil and wiped down with 70% ethanol.
Cells were imaged on a Cytation5 with a 20× objective sampling from 4 areas of each well. Nuclei were captured under DAPI channel and foci under RFP channel. Plates were analyzed on an average foci per nucleus per well basis.

CCN(CC)CCCC[C@H](NC(=O)[C@H](CC(C)C)NC(=O)[C@H](C)NC(=O)[C@H](Cc1ccccc1)NC(=O)c1ccc(C(C)(C)C)cc1)C(=O)N[C@@H](CO)C(=O)NCCOCCOCCOCCOCCOCCNC(=O)c1nc(NC(=O)CCNC(=O)c2cc(NC(=O)c3nc(NC(=O)CCCNC(=O)c4cc(NC(=O)c5nc(NC(=O)c6cc(NC(=O)c7cccn7C)cn6C)cn5C)cn4C)cn3C)cn2C)cn1C [Compound 107] was tested. Which EC50 did it give?
Its EC50 is > 500 nM.

Which EC50 does the source give for CCN(CC)CCCC[C@H](NC(=O)[C@H](CC(C)C)NC(=O)[C@H](C)NC(=O)[C@H](Cc1ccccc1)NC(=O)c1ccc(C(C)(C)C)cc1)C(=O)N[C@@H](CO)C(=O)NCCOCCOCCOCCOCCOCCNC(=O)c1nc(NC(=O)c2cc(NC(=O)CCNC(=O)c3nc(NC(=O)CCCNC(=O)c4nc(NC(=O)c5nc(CC(=O)CCNC(=O)c6cc(NC(=O)c7nccn7C)cn6C)cn5C)cn4C)cn3C)cn2C)cn1C [Compound 103] here?
The EC50 was < 100 nM.

CCN(CC)CCCC[C@H](NC(=O)[C@H](CC(C)C)NC(=O)[C@H](C)NC(=O)[C@H](Cc1ccccc1)NC(=O)c1ccccc1)C(=O)N[C@@H](CO)C(=O)NCCOCCOCCOCCOCCOCCNC(=O)CCNC(=O)c1nc(NC(=O)c2cc(NC(=O)CCNC(=O)c3nc(NC(=O)CCCNC(=O)c4cc(NC(=O)c5nc(NC(=O)CCNC(=O)c6cc(NC(=O)c7nccn7C)cn6C)cn5C)cn4C)cn3C)cn2C)cn1C [Compound 87] was tested. Which EC50 did it give?
The EC50 was < 100 nM.

How did the EC50 turn out when CN(CCCC[C@H](NC(=O)COCCOCCNC(=O)c1ccc(C(C)(C)C)cc1)C(=O)N[C@@H](CO)C(=O)NCCOCCOCCOCCOCCOCCNC(=O)CCNC(=O)c1nc(NC(=O)c2cc(NC(=O)CCNC(=O)c3nc(NC(=O)CCCNC(=O)c4cc(NC(=O)c5nc(NC(=O)CCNC(=O)c6cc(NC(=O)c7nccn7C)cn6C)cn5C)cn4C)cn3C)cn2C)cn1C)C1CC2CCC1C2 (stereo partly shown) [Compound 68] was run?
The EC50 was 100 to 500 nM.

With CC(C)C[C@H](NC(=O)[C@H](C)NC(=O)[C@H](Cc1ccccc1)NC(=O)c1ccc(C(C)(C)C)cc1)C(=O)N[C@@H](CCCCN(C)C1CC2CCC1C2)C(=O)N[C@@H](CO)C(=O)NCCOCCOCCOCCOCCOCCNC(=O)CCNC(=O)c1nc(NC(=O)c2cc(NC(=O)CCNC(=O)c3nc(NC(=O)CCCNC(=O)c4cc(NC(=O)c5nc(NC(=O)CCNC(=O)c6cc(NC(=O)c7nccn7C)cn6C)cn5C)cn4C)cn3C)cn2C)cn1C (stereo partly shown) [Compound 59] as the compound, how does the EC50 read?
The EC50 was 100 to 500 nM.

Which EC50 does the source give for CCN(CC)CCCC[C@H](NC(=O)[C@H](CC(C)C)NC(=O)[C@H](C)NC(=O)[C@H](Cc1ccccc1)NC(=O)c1ccc(C(C)(C)C)cc1)C(=O)N[C@@H](CO)C(=O)NCCOCCOCCOCCOCCOCCOCCOCCOCCOCCOCCNC(=O)CCNC(=O)c1nc(NC(=O)c2cc(NC(=O)CCNC(=O)c3nc(NC(=O)CCCNC(=O)c4cc(NC(=O)c5nc(NC(=O)CCNC(=O)c6cc(NC(=O)c7nccn7C)cn6C)cn5C)cn4C)cn3C)cn2C)cn1C [Compound 26] here?
The EC50 was 100 to 500 nM.

Which EC50 does the source give for CCN(CC)CCCC[C@H](NC(=O)[C@H](CC(C)C)NC(=O)[C@H](C)NC(=O)[C@H](Cc1ccccc1)NC(=O)c1ccc(C(C)(C)C)cc1)C(=O)N[C@@H](CO)C(=O)NCCOCCOCCOCCOCCOCCNC(=O)CCNC(=O)c1nc(NC(=O)c2cc(NC(=O)CCNC(=O)c3nc(NC(=O)[C@@H](CCNC(=O)c4cc(NC(=O)c5nc(NC(=O)CCNC(=O)c6cc(NC(=O)c7nccn7C)cn6C)cn5C)cn4C)NC(C)=O)cn3C)cn2C)cn1C [Compound 102] here?
The EC50 was 100 to 500 nM.

For CCN(CC)CCCC[C@H](NC(=O)[C@H](CC(C)C)NC(=O)[C@H](C)NC(=O)[C@H](Cc1ccccc1)NC(=O)c1ccc(C(C)(C)C)cc1)C(=O)N[C@@H](CO)C(=O)NCCOCCOCCNC(=O)c1cc(NC(=O)c2cc(NC(=O)c3nc(NC(=O)c4cc(NC(=O)[C@@H](N)CCNC(=O)c5nc(NC(=O)CCNC(=O)c6cc(NC(=O)c7nccn7C)cn6C)cn5C)cn4C)cn3C)cn2C)cn1C [Compound 82], which EC50 is on record?
Its EC50 is > 500 nM.

Which EC50 does the source give for CCN(CC)CCCC[C@H](NC(=O)[C@H](CC(C)C)NC(=O)[C@H](C)NC(=O)[C@H](Cc1ccccc1)NC(=O)c1ccc(C(C)(C)C)cc1)C(=O)N[C@@H](CO)C(=O)NCCOCCOCCOCCOCCNC(=O)CCNC(=O)c1nc(NC(=O)c2cc(NC(=O)CCNC(=O)c3nc(NC(=O)CCCNC(=O)c4cc(NC(=O)c5nc(NC(=O)CCNC(=O)c6cc(NC(=O)c7nccn7C)cn6C)cn5C)cn4C)cn3C)cn2C)cn1C [Compound 72] here?
The EC50 was < 100 nM.

How did the EC50 turn out when CCN(CC)CCCC[C@H](NC(=O)[C@H](CC(C)C)NC(=O)[C@H](C)NC(=O)[C@H](Cc1ccccc1)NC(=O)c1ccc(C(C)(C)C)cc1)C(=O)N[C@@H](CO)C(=O)NCCOCCOCCOCCOCCOCCNC(=O)c1nc(NC(=O)CCNC(=O)c2cc(NC(=O)c3nc(NC(=O)[C@@H](CCNC(=O)c4cc(NC(=O)c5nc(NC(=O)c6cc(NC(=O)c7cccn7C)cn6C)cn5C)cn4C)NC(C)=O)cn3C)cn2C)cn1C [Compound 109] was run?
The EC50 was > 500 nM.

With CCN(CC)CCCC[C@H](NC(=O)[C@H](CC(C)C)NC(=O)[C@H](C)NC(=O)[C@H](Cc1ccccc1)NC(=O)c1ccc(C(C)(C)C)cc1)C(=O)N[C@@H](CO)C(=O)NCCOCCOCCNC(=O)c1cc(NC(=O)c2cc(NC(=O)c3nc(NC(=O)c4cc(NC(=O)[C@@H](N)CCNC(=O)c5nc(NC(=O)c6cc(NC(=O)c7cc(NC(=O)c8nccn8C)cn7C)cn6C)cn5C)cn4C)cn3C)cn2C)cn1C [Compound 78] as the compound, how does the EC50 read?
Its EC50 is > 500 nM.

Same assay, conditions: Homo sapiens, Fibroblast; DM1 fibroblasts, 48 h treatment, 8-point dose response, 3 μM top dose; read-out: Foci Reduction in Fibroblast EC50, 48 h

With CCN(c1cc(-c2ccc(CN3CCN(CCOCCOCCOCCOCCOCCNC(=O)CCNC(=O)c4nc(NC(=O)c5cc(NC(=O)CCNC(=O)c6nc(NC(=O)CCCNC(=O)c7cc(NC(=O)c8nc(NC(=O)CCNC(=O)c9cc(NC(=O)c%10nccn%10C)cn9C)cn8C)cn7C)cn6C)cn5C)cn4C)CC3)cc2)cc(C(=O)NCc2c(C)cc(C)[nH]c2=O)c1C)C1CCOCC1 [Compound 166] as the compound, how does the EC50 read?
Its EC50 is > 500 nM.

For COc1c(OCCOCCOCCOCCOCCOCCNC(=O)CCNC(=O)c2nc(NC(=O)c3cc(NC(=O)CCNC(=O)c4nc(NC(=O)CCCNC(=O)c5cc(NC(=O)c6nc(NC(=O)CCNC(=O)c7cc(NC(=O)c8nccn8C)cn7C)cn6C)cn5C)cn4C)cn3C)cn2C)cccc1C(=O)N1CCN(C(=O)COc2cc(C)cc(C)c2)CC1 [Compound 91], which EC50 is on record?
Its EC50 is > 500 nM.

Which EC50 does the source give for CN(C)[C@@H]1CN(C2CCc3cccc(F)c32)C[C@H]1c1ccc(N2CCN(C(=O)COCCOCCOCCOCCOCCNC(=O)CCNC(=O)c3nc(NC(=O)c4cc(NC(=O)CCNC(=O)c5nc(NC(=O)CCCNC(=O)c6cc(NC(=O)c7nc(NC(=O)CCNC(=O)c8cc(NC(=O)c9nccn9C)cn8C)cn7C)cn6C)cn5C)cn4C)cn3C)CC2)cc1 (stereo partly shown) [Compound 174] here?
Its EC50 is > 500 nM.

Cn1cc(CCn2c(CNCCOCCOCCOCCOCCOCCNC(=O)CCNC(=O)c3nc(NC(=O)c4cc(NC(=O)CCNC(=O)c5nc(NC(=O)CCCNC(=O)c6cc(NC(=O)c7nc(NC(=O)CCNC(=O)c8cc(NC(=O)c9nccn9C)cn8C)cn7C)cn6C)cn5C)cn4C)cn3C)nc(-c3cnn(C)c3)c2-c2ccc(C#N)cc2)cn1 [Compound 172] was tested. Which EC50 did it give?
The EC50 was > 500 nM.

For CCCCCCNc1nc(NC2CCN(CCOCCOCCOCCOCCOCCOCCOCCOCCOCCOCCNC(=O)CCNC(=O)c3nc(NC(=O)c4cc(NC(=O)CCNC(=O)c5nc(NC(=O)CCCNC(=O)c6cc(NC(=O)c7nc(NC(=O)CCNC(=O)c8cc(NC(=O)c9nccn9C)cn8C)cn7C)cn6C)cn5C)cn4C)cn3C)CC2)c2cc(OC)c(OC)cc2n1 [Compound 191], which EC50 is on record?
Its EC50 is > 500 nM.

With CN(C)[C@H]1CN(C2CCc3cccc(F)c32)C[C@@H]1c1ccc(N2CCN(C(=O)COCCOCCOCCOCCOCCNC(=O)CCNC(=O)c3nc(NC(=O)c4cc(NC(=O)CCNC(=O)c5nc(NC(=O)CCCNC(=O)c6cc(NC(=O)c7nc(NC(=O)CCNC(=O)c8cc(NC(=O)c9nccn9C)cn8C)cn7C)cn6C)cn5C)cn4C)cn3C)CC2)cc1 (stereo partly shown) [Compound 146] as the compound, how does the EC50 read?
The EC50 was > 500 nM.

Cn1cc(NC(=O)c2nc(NC(=O)CCNC(=O)c3cc(NC(=O)c4nccn4C)cn3C)cn2C)cc1C(=O)NCCCC(=O)Nc1cn(C)c(C(=O)NCCC(=O)Nc2cc(C(=O)Nc3cn(C)c(C(=O)NCCC(=O)NCCOCCOCCOCCOCCOCCOCCn4cc(CCCCN(Cc5ccc(C(=O)NO)cc5)C(=O)Nc5ccccc5)nn4)n3)n(C)c2)n1 [Compound 126] was tested. Which EC50 did it give?
The EC50 was > 500 nM.

COc1c(OCCOCCOCCOCCOCCOCCNC(=O)CCNC(=O)c2nc(NC(=O)c3cc(NC(=O)CCNC(=O)c4nc(NC(=O)CCCNC(=O)c5cc(NC(=O)c6nc(NC(=O)CCNC(=O)c7cc(NC(=O)c8nccn8C)cn7C)cn6C)cn5C)cn4C)cn3C)cn2C)cccc1C(=O)N1CCN(C(=O)COc2cccc(C)c2)CC1 [Compound 94] was tested. Which EC50 did it give?
Its EC50 is > 500 nM.
